Experimental data: the supplement of paper PMC11208160

Test: recombinant UMI read abundance after kanamycin selection (control-corrected) (log10(CPM+1)); higher = more efficient recombination; extreme values may be limits of the assay; sequences stand for … in AGTGCAGAGAAAATCGGCCAGTTTTCTCTGCCTGCAGTCCGCATGCCGTGGGACCCCTTGGGTTCTAACCTGTTGCCTAGATTTATGCAGCGGACTGCCTTTCTCCCAAAGTGATAAACCGG…AGGTTGGTTTCACT; site = the 11-nt donor
Outline: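 For the IS621 bridge recombinase, a pooled Escherichia coli screen tested donor and donor-binding-loop pairs. Cells received the pair library together with a target plasmid encoding a fixed target and T7-inducible recombinase, then went onto IPTG (0.07 mM) plus kanamycin or unselected plates in duplicate. After PCR across the donor–target junction and sequencing, recombinant UMI counts were normalized to CPM, averaged, and scaled by control-derived factors. Each value is given as log10(CPM+1).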

In order of rising “recombinant UMI read abundance (log10)” value:
1. TCCATATCATGGACCGGTTTTCCCGGTAATCCGTATTTGTC (site GCCATATCTGA)  0
2. CGAGTCCCATGGACCGGTTTTCCCGGTAATCCGTATTTGTG (site GTCAGTTCTAG)  0
3. GGTAGAACATGGACCGGTTTTCCCGGTAATCCGTATTTGGC (site GCTAGAACTGC)  0
4. CCCGTTCCATGGACCGGTTTTCCCGGTAATCCGTATTTGCA (site CCCGATCCTTG)  0
5. CTGAGGCCATGGACCGGTTTTCCCGGTAATCCGTATTTGGT (site CTGAGGCCTAC)  0
6. CTACCATCATGGACCGGTTTTCCCGGTAATCCGTATTTGCT (site CGATCATCTAG)  0
7. GGTTGTCCATGGACCGGTTTTCCCGGTAATCCGTATTTGGC (site GGTTGTCCTGC)  0
8. ACACATCCATGGACCGGTTTTCCCGGTAATCCGTATTTGAC (site ACTCATCCTGT)  0
9. GATTAGCCATGGACCGGTTTTCCCGGTAATCCGTATTTGCT (site GATTATCCTAG)  0
10. GATTGGCCATGGACCGGTTTTCCCGGTAATCCGTATTTGAC (site GATTGGTCTGT)  0
11. TAGCAATCATGGACCGGTTTTCCCGGTAATCCGTATTTGCG (site TAGAAATCTCG)  0
12. CTGGTACCATGGACCGGTTTTCCCGGTAATCCGTATTTGCT (site CTGTTACCTAG)  0
13. CGGGATCCATGGACCGGTTTTCCCGGTAATCCGTATTTGCT (site CGGGATCCTAG)  0
14. CGATCGCCATGGACCGGTTTTCCCGGTAATCCGTATTTGTT (site CGATCGGCTAA)  0
15. GAAGGGCCATGGACCGGTTTTCCCGGTAATCCGTATTTGCA (site GAACGGCCTTG)  0
16. TGAATACCATGGACCGGTTTTCCCGGTAATCCGTATTTGTC (site TGAATACCTGA)  0
17. AGAAAGGCATGGACCGGTTTTCCCGGTAATCCGTATTTGCT (site AGAAAAGCTAG)  0
18. CCGCTAGCATGGACCGGTTTTCCCGGTAATCCGTATTTGTG (site CCGTTAGCTCA)  0
19. TCATACTCATGGACCGGTTTTCCCGGTAATCCGTATTTGCA (site TCATACTCTAG)  0
20. CGGGAACCATGGACCGGTTTTCCCGGTAATCCGTATTTGAG (site CGGGAACCTAT)  0
21. CGGGAACCATGGACCGGTTTTCCCGGTAATCCGTATTTGTT (site CGGGAACCTAG)  0
22. GCGAAAACATGGACCGGTTTTCCCGGTAATCCGTATTTGCG (site GCGAAAACTTG)  0
23. TCGGGTACATGGACCGGTTTTCCCGGTAATCCGTATTTGAC (site TCGGGTACTGT)  0
24. TCAACCGCATGGACCGGTTTTCCCGGTAATCCGTATTTGCG (site TCTACCGCTCG)  0
25. TATTTGGCATGGACCGGTTTTCCCGGTAATCCGTATTTGTG (site TATATGGCTCA)  0.00476
26. TAATGGCCATGGACCGGTTTTCCCGGTAATCCGTATTTGCA (site AAATGGCCTTG)  0.00563
27. CGGGAACCATGGACCGGTTTTCCCGGTAATCCGTATTTGTT (site CGGGAACCTAT)  0.0108
28. CGATCTACATGGACCGGTTTTCCCGGTAATCCGTATTTGTT (site CGATCAACTAA)  0.012
29. TTCCAAGCATGGACCGGTTTTCCCGGTAATCCGTATTTGAG (site GTCCAAGCTCT)  0.0126
30. CAATACTCATGGACCGGTTTTCCCGGTAATCCGTATTTGAA (site CAATGCTCTTT)  0.0128
31. GCTTGCCCATGGACCGGTTTTCCCGGTAATCCGTATTTGGT (site GCTTGCCCTAC)  0.017
32. TAAAGTTCATGGACCGGTTTTCCCGGTAATCCGTATTTGTA (site TAAAGTACTTA)  0.0179
33. CCGCTAGCATGGACCGGTTTTCCCGGTAATCCGTATTTGTG (site CCGGTAGCTCA)  0.0182
34. GGAGTCGCATGGACCGGTTTTCCCGGTAATCCGTATTTGCG (site GTAGTCGCTCG)  0.0226
35. GCTTTACCATGGACCGGTTTTCCCGGTAATCCGTATTTGTT (site GCTTTACCTAA)  0.0408
36. GTAAGTACATGGACCGGTTTTCCCGGTAATCCGTATTTGAC (site GTAGGTACTGT)  0.255
37. AATGCAACATGGACCGGTTTTCCCGGTAATCCGTATTTGTG (site AATGCAACTCA)  0.302
38. AGTAAGGCATGGACCGGTTTTCCCGGTAATCCGTATTTGCT (site AGGAAGGCTAG)  0.32
39. ACTAGAACATGGACCGGTTTTCCCGGTAATCCGTATTTGAG (site GCTAGAACTCT)  0.34
40. CCCTACACATGGACCGGTTTTCCCGGTAATCCGTATTTGCT (site CGCTACACTAG)  0.477
41. GATTCTCCATGGACCGGTTTTCCCGGTAATCCGTATTTGCT (site GATTCTCCTAG)  0.753
42. CTCTACACATGGACCGGTTTTCCCGGTAATCCGTATTTGCG (site CTCTACACTTG)  0.829
43. TGAAAGGCATGGACCGGTTTTCCCGGTAATCCGTATTTGCT (site AGAAAGGCTAG)  0.855
44. ACAGTGTCATGGACCGGTTTTCCCGGTAATCCGTATTTGAA (site ACAGTATCTTG)  1.04
45. ACAGAGGCATGGACCGGTTTTCCCGGTAATCCGTATTTGTG (site ACAGAGGCTCA)  1.14
46. GTGGGTACATGGACCGGTTTTCCCGGTAATCCGTATTTGTT (site GTGGGTACTAA)  1.15
47. CACTGATCATGGACCGGTTTTCCCGGTAATCCGTATTTGGG (site CACTGATCTCC)  1.27
48. TCAGATTCATGGACCGGTTTTCCCGGTAATCCGTATTTGGA (site TCAGATTCTTC)  1.34
49. CCGGCTACATGGACCGGTTTTCCCGGTAATCCGTATTTGAT (site CCGGCTACTAT)  1.37
50. CTAACCGCATGGACCGGTTTTCCCGGTAATCCGTATTTGTT (site CTAACCGCTAA)  1.6
51. AGCTACGCATGGACCGGTTTTCCCGGTAATCCGTATTTGAA (site AGCTACGCTTT)  1.7
52. ACAGTATCATGGACCGGTTTTCCCGGTAATCCGTATTTGCC (site ACAGTATCTCG)  1.77
53. ACGGTATCATGGACCGGTTTTCCCGGTAATCCGTATTTGCA (site ACCGTATCTTG)  1.92
54. CTGCACACATGGACCGGTTTTCCCGGTAATCCGTATTTGAT (site CTGCACACTAT)  2.25
55. GACTGAGCATGGACCGGTTTTCCCGGTAATCCGTATTTGTC (site GACTGAGCTGA)  2.29
56. ACGAAGACATGGACCGGTTTTCCCGGTAATCCGTATTTGCG (site ACGAAGACTCG)  2.77
57. CTCTACGCATGGACCGGTTTTCCCGGTAATCCGTATTTGCT (site CTCTACTCTAG)  2.89
